The values that follow come from patent publication US11197903B2, “Composition containing a bean extract for improving blood circulation and vascular health and method for improving blood circulation and vascular health” (AMOREPACIFIC CORPORATION, priority 2009, dated 2021).

The subject of data set [1] is rats fed high-cholesterol diet. Put plainly: Serum and liver lipid levels in high-cholesterol diet animal model. The settings on record: 200 mg/kg orally, 4 weeks. Type of data set: in vivo, rat. The method, then:
8-week-old female rats weighing 250-300 g were kept in polycarbonate cages, 8 heads per cage, maintained at 22±2° C. and 55±15% relative humidity with 12/12-hr light/dark cycles. Normal diet or high-cholesterol diet was provided and water was given freely. Fenofibric acid (200 mg/kg) used for treatment of hyperlipidemia was suspended in 1% methyl cellulose (MC) and orally administered as a positive control. The seoritae extract (200 mg/kg) was orally administered once a day for 4 weeks. […] After the centrifugation, total cholesterol, LDL-cholesterol, HDL-cholesterol and triglyceride levels in the obtained serum were evaluated. The analysis was performed using an automated hematology analyzer and the Roche diagnostic kit. The result is shown in Table 17 (serum lipids) and Table 18 (liver lipids).

For data set [2] the following is noted: in vivo. The method, then:
Bleeding time was compared for the cases where 20% ethanol seoritae extract, aspirin or clopidogrel was treated.

As for `CC(C)(Oc1ccc(C(=O)c2ccc(Cl)cc2)cc1)C(=O)O` [Positive control, Fenofibric acid], in data set [1] (liver), the Total cholesterol was 15.43 ± 0.52 µg/mg and the Triglyceride turned out to be 185.39 ± 23.84 µg/mg. For the same compound, in data set [1] (serum), the HDL-cholesterol is 87.89 ± 6.84 mg/dL, the LDL-cholesterol was 75.34 ± 2.80 mg/dL and the Total cholesterol was 112.42 ± 13.33 mg/dL.
For the compound `CC(=O)Oc1ccccc1C(=O)O` [aspirin], in data set [2], the “bleeding time (FIG. 18)” value is “significant increase of bleeding time”.
Regarding `COC(=O)[C@H](c1ccccc1Cl)N1CCc2sccc2C1` [clopidogrel], the “bleeding time (FIG. 18)” value in data set [2] is recorded as “significant increase of bleeding time”.
